In patent publication US7939534B2, “Certain chemical entities, compositions, and methods” (Cytokinetics, Inc., priority 2006, dated 2011):

The compounds below were run against T1, chicken gizzard smooth muscle myosin subfragment-1 chemically crosslinked to either cardiac or skeletal actin (Gallus gallus, UniProt P10587) (assay: Dose dependent smooth muscle myosin ATPase modulation (pyruvate kinase/horseradish peroxidase/pyruvate oxidase-coupled ATPase assay)). Conditions: read-out: IC50 Arithmetic Mean.
T1 construct: chicken gizzard smooth muscle myosin subfragment-1; from tissue; host or cells: chicken gizzard
Assay type: biochemical
Summary of the method: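 Chicken gizzard smooth muscle myosin S1 crosslinked (EDC/NHS) to cardiac or skeletal actin, concentration titrated to a set ATPase rate. Pyruvate kinase/pyruvate oxidase/HRP-coupled assay, 0.15 mM ATP, 12 mM K-PIPES pH 7.00, 100 mM KCl, amplex red fluorescence; IC50 from 4-parameter fit.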
With `O=C(NCc1cccnc1)c1ccc(C2=CCC3(CC2)OCCO3)nc1NCCc1cccc(F)c1` [Compound 60, (6-(1,4-dioxaspiro[4.5]dec-7-en-8-yl)-2-{[2-(3-fluorophenyl)ethyl]amino}(3-pyridyl))-N-(3-pyridylmethyl)carboxamide] the IC50 was 1.82 µM. In the case of `NC(=O)CNC(=O)c1ccc(N2CCCC2)nc1NCCc1cccc(F)c1` [Compound 5, N-(carbamoylmethyl)(2-{[2-(3-fluorophenyl)ethyl]amino}-6-pyrrolidinyl(3-pyridyl))carboxamide], the IC50 is reported as 1.46 µM. For `CS(=O)(=O)N1CC=C(c2ccc(C(=O)NCc3cccnc3)c(NCCc3cccc(F)c3)n2)CC1` [Compound 83, (2-{[2-(3-fluorophenyl)ethyl]amino}-6-[1-(methylsulfonyl)(4-1,2,5,6-tetrahydropyridyl)](3-pyridyl))-N-(3-pyridylmethyl)carboxamide], the IC50 was 6.4 µM. With `NC[C@@H]1CCN(c2ccc(C(=O)NCc3cccnc3)c(NCCc3cccc(F)c3)n2)C1` [Compound 11, (6-[(3S)-3-(aminomethyl)pyrrolidinyl]-2-{[2-(3-fluorophenyl)ethyl]amino}(3-pyridyl))-N-(3-pyridylmethyl)carboxamide] the IC50 was 16.9 µM. For `O=C(NCc1cccnc1)c1ccc(C2CCCC2)nc1NCCc1cccc(F)c1` [Compound 59, (6-cyclopentyl-2-{[2-(3-fluorophenyl)ethyl]amino}(3-pyridyl))-N-(3-pyridylmethyl)carboxamide], the IC50 was 4.41 µM. In the case of `O=C(NCc1cccnc1)c1ccc(N2CC(O)CCC2=O)nc1NCCc1cccc(F)c1` (centres unmarked) [Compound 20, (2-{[2-(3-fluorophenyl)ethyl]amino}-6-(5-hydroxy-2-oxopiperidyl)(3-pyridyl))-N-(3-pyridylmethyl)carboxamide], the IC50 is reported as 29.7 µM. `O=C(NCc1cccnc1)c1ccc(N2CCC(O)(c3ccccc3)CC2)nc1NCCc1cccc(F)c1` [Compound 111, (2-{[2-(3-fluorophenyl)ethyl]amino}-6-(4-hydroxy-4-phenylpiperidyl)(3-pyridyl))-N-(3-pyridylmethyl)carboxamide] showed an IC50 of 16.7 µM. `NCc1cccc(CNC(=O)c2ccc(N3CCCCC3)nc2NCCc2cccc(F)c2)n1` [Compound 101, N-{[6-(aminomethyl)(2-pyridyl)]methyl}(2-{[2-(3-fluorophenyl)ethyl]amino}-6-piperidyl(3-pyridyl))carboxamide] was tested, and the IC50 was 0.334 µM. `NCc1ncccc1CNC(=O)c1ccc(C2=CCCC2)nc1NCCc1cccc(F)c1` [Compound 37, N-{[2-(aminomethyl)(3-pyridyl)]methyl}(6-cyclopent-1-enyl-2-{[2-(3-fluorophenyl)ethyl]amino}(3-pyridyl))carboxamide] gave an IC50 of 0.0146 µM. `O=C(NCc1cccnc1)c1ccc(N2CCC(O)CC2)nc1NCCc1cccc(F)c1` [Compound 115, (2-{[2-(3-fluorophenyl)ethyl]amino}-6-(4-hydroxypiperidyl)(3-pyridyl))-N-(3-pyridylmethyl)carboxamide] was tested, and the IC50 was 0.756 µM. Compound `O=C(NCc1cccnc1)c1ccc(C2CCCCC2)nc1NCCc1cccc(F)c1` [Compound 66, (6-cyclohexyl-2-{[2-(3-fluorophenyl)ethyl]amino}(3-pyridyl))-N-(3-pyridylmethyl)carboxamide] has an IC50 of 4.17 µM. For `CN1CCN(c2ccc(C(=O)NCc3cccnc3)c(NCCc3cccc(F)c3)n2)CC1` [Compound 22, (2-{[2-(3-fluorophenyl)ethyl]amino}-6-(4-methylpiperazinyl)(3-pyridyl))-N-(3-pyridylmethyl)carboxamide], the IC50 was 59.9 µM. For `O=C(NCc1cccnc1)c1ccc(N2CCOC(CO)C2)nc1NCCc1cccc(F)c1` (centres unmarked) [Compound 119, (2-{[2-(3-fluorophenyl)ethyl]amino}-6-[2-(hydroxymethyl)morpholin-4-yl](3-pyridyl))-N-(3-pyridylmethyl)carboxamide], the IC50 was 7.21 µM. Work on `NC(=O)CNC(=O)c1ccc(N2CC[C@@H](O)C2)nc1NCCc1cccc(F)c1` [Compound 2, (6-((3R)-3-hydroxypyrrolidinyl)-2-{[2-(3-fluorophenyl)ethyl]amino}(3-pyridyl))-N-(carbamoylmethyl)carboxamide] yielded an IC50 of 11.4 µM.
